Entries after “also recorded” stand apart in the source; their conditions may differ.
Experiments:
HO-1 [1] = assay: Western analysis of HO-1 expression in the ex vivo I/R injury model; design: species or system rat; conditions: at completion of 2-hour perfusion period; densitometer; untreated 0.11 AU
Procedure: (§1) Western blots: Protein was extracted from liver tissue samples with PBSTDS buffer (50 mM Tris, 150 mM NaCl, 0.1% SDS, 1% sodium deoxycholate, and 1% Triton X-100, pH 7.2). Proteins (30 μg/sample) in SDS-loading buffer (50 mM Tris, pH 7.6, 10% glycerol, 1% SDS) were subjected to 12% SDS-PAGE and transferred to nitrocellulose membrane (Bio-Rad Laboratories Inc., Hercules, Calif., USA). The gel was then stained with Coomassie blue to document equal protein loading. The membrane was blocked with 3% dry milk and 0.1% Tween-20 (Amersham, Arlington Heights, Ill., USA) in PBS and incubated with rabbit anti-rat HO-1 polyclonal Ab (Sangstat Corp., San Francisco, Calif., USA). The filters were washed and then incubated with horseradish peroxidase donkey anti-rabbit Ab (Amersham Life Sciences, Arlington Heights, Ill., USA). Relative quantities of HO-1 protein were determined using a densitometer (Kodak Digital Science 1D Analysis Software, Rochester, N.Y., USA) and results were expressed in absorbance units (AU).
Western blots were performed as described in Example 3.

EL4 cells = assay: Cytotoxic T-cell activity, four hour chromium release assay; type: cell-based, mouse; conditions: for target cell lysis: at about 10 μg/ml, cytotoxic T-cells, E:T 20:1, four hour incubation; for chromium release from target cells: at concentrations higher than about 10 μg/ml, compared with spontaneous release without compound
Text: Cytotoxic T-cell Activity: To assay the effect of metalloprotoporphyrins on cytotoxic T-cell activity, CBA to B6 effectors were generated following a five day culture of 3×10^6 CBA spleen cells with 3×10^6 mitomycin-treated B6 spleen cells in wells of a 24-well plate (Nunclone, Delta, Nunc, Denmark) in R-10 medium. Effector cells were then harvested and washed. (H2^b), a mouse lymphoma induced in C57BL/6N was used as target cells. EL4 cells were routinely subcultured once every three days. They were then collected, washed, and labeled with 0.1 mCi of sodium chromate-51 in 200 μl for one hour at 37° C. Effector (E) and target (t) cells were added into V-shaped tissue culture plates (Nunc, Denmark) at E:T of 20:1. Metalloprotoporphyrins were diluted to the working concentrations with PBS and added at the beginning of the four hour incubation period. For the determination of maximal release, 1% triton X-100 was added to separate wells. Plates were centrifuged for three minutes to increase cellular contact before the four hour incubation period. After incubation 75 μl supernatant from each well was collected and the amount of^51Cr released was counted using a TopCount scintillation counter. The degree of cell lysis was calculated using the formula below: […]

[2] = system: C57B1/6 heart allografts in CBA recipients; assay: Heterotopic heart transplantation, allograft survival; type: in vivo, mouse; conditions: control 7.8±1.1
Procedure: FIG. 2 is a graph showing the prolongation of heart allograft survival following metalloprotoporphyrin therapy. CBA recipients of C57B1/6 heart allografts were either untreated or treated as follows: Zn-protoporphyrin group (n=4); Zn-protoporphyrin was administered at 10 mg/kg/day on day −1 before transplantation and on days 1–9 post transplantation. Co-protoporphyrin group (n=4); Co-protoporphyrin was administered at 20 mg/kg/day on days 0–5 post-transplantation; Zn-protoporphyrin pretreatment group (n=3); heart donors were treated one day before transplantation with 50 mg/kg Zn-protoporphyrin.
Heterotopic Heart Transplantation: Abdominal heterotopic heart transplantation was performed as previously described by Ono and Lindsey, J. Thorac. Cardiovasc. Surg. 7:225–229 (1969) using […] donors and CBA recipients. Metalloporphyrin was administered intraperitoneally using various protocols. Heart allograft survival was monitored daily by direct palpation, and rejection was defined as termination of palpable cardiac contractility. Results are expressed as percentage graft survival at a given postoperative period. Statistical analysis was performed with the Mann-Whitney test.

[3] = system: fatty livers from obese Zucker rats; assay: Ex vivo steatotic rat liver cold ischemia model followed by reperfusion; type: in vivo; conditions: for bile production / portal blood flow: 2-hour reperfusion after 6 hours cold ischemia; for bile production / portal blood flow / I/R-induced hepatocyte injury measured by sGOT release: compared with untreated controls; for I/R-induced hepatocyte injury measured by sGOT release: 2-hour reperfusion
Procedure: Animals, metalloporphyrins, and adenovirus constructs are described in Example 3. Ex vivo cold ischemia model: Genetically obese Zucker rats underwent ether anesthesia and systemic heparinization. […] Control livers from untreated obese Zucker rats were stored for 6 hours at 4° C. in UW solution (n=6). There were 4 treatment groups. Group 1 animals received CoPP, the HO-1 inducer (5 mg/kg intraperitoneally) 24 hours before liver harvest (n=6). Group 2 rats were infused with Ad-HO-1 or Ad-β Gal (2.4×10^9 plaque-forming units (pfu) […]) 24 to 48 hours before the procurement (n=4–10). Group 3 donors were treated with Ad-HO-1 (2.4×10^9 pfu intravenously) at day-2, followed 1 day later by infusion of ZnPP (20 mg/kg intraperitoneally), the HO-1 inhibitor (n=4). Group 4 rats received ZnPP alone (20 mg/kg intraperitoneally) at 24 hours before harvest (n=4). All livers were procured at day 0, stored for 6 hours at 4° C. in UW solution, and then perfused on an isolated perfusion rat liver apparatus, as described. The Zucker livers were perfused ex vivo for 2 hours while temperature, pH, and inflow pressure were kept constant. Portal vein blood flow and pressure were recorded every 15 minutes, whereas bile output was monitored every 30 minutes. Portal vein blood flow was adjusted to maintain portal pressures of 13 to 18 cm H2O. Blood was collected at 30-minute intervals and serum glutamic-oxaloacetic trans-aminase (sGOT) levels were measured using an autoanalyzer from ANTECH Diagnostics (Irvine, Calif., USA). Following 2 hours of perfusion, a portion of the liver was snap-frozen for mRNA extraction and Western blot analysis of HO-1 expression; the remaining tissue samples were fixed in formalin for hematoxylin and eosin (H&E) staining.

[4] = system: fatty livers from obese Zucker rats; assay: Liver histology in the ex vivo cold ischemia model, Banff's criteria; design: species or system rat; conditions: after 2 hours perfusion; graded 1 to 4; untreated 3.0±0.63
Text: Histology and immunohistochemistry: Liver specimens were fixed in a 10% buffered formalin solution and embedded in paraffin. Sections were made at 4 μm and stained with H&E. The histologic severity of I/R injury in the ex vivo perfusion model was graded using International Banff Criteria. Using these criteria, lobular disarray and ballooning changes are graded from 1 to 4, where no change is given a score of 1 and severe disarray or ballooning changes is given a score of 4.

liver isografts [5] = assay: OLT immunohistochemistry for mononuclear cell (MNC) infiltration; type: in vivo, rat
Procedure: OLTs were examined serially by immunohistochemistry for mononuclear cell (MNC) infiltration. Briefly, liver tissue was embedded in Tissue Tek OCT compound (Miles Inc., Elkhart, Ind., USA), snap frozen in liquid nitrogen, and stored at −70° C. Cryostat sections (5 μm) were fixed in acetone, and then endogenous peroxidase activity was inhibited with 0.3% H2O2 in PBS. Normal heat-inactivated donkey serum (10%) was used for blocking. Appropriate primary mouse Ab against rat T cells (R73) and monocytes/macrophages (ED1) (Harlan Bioproducts for Science, Indianapolis, Ind., USA) were added at optimal dilutions. Bound primary Ab was detected using biotinylated donkey anti-mouse IgG and streptavidin peroxidase-conjugated complexes (DAKO Corp., Carpinteria, Calif., USA). The control sections were performed by replacing the primary Ab with either dilution buffer or normal mouse serum. The peroxidase reaction was developed with 3,3-diaminobenzidine tetrahydrochloride (Sigma Chemical Co., St. Louis, Mo., USA). The sections were evaluated blindly by counting the labeled cells in triplicates in 10 high-power fields.

[6] = system: fatty liver isografts from obese Zucker donors in lean Zucker recipients; assay: Syngeneic orthotopic liver transplant (OLT) model, survival and sGOT; type: in vivo, rat
Procedure: Syngeneic Orthotopic Liver Transplant (OLT) model: Syngeneic liver transplants were performed using fatty livers that were harvested from obese Zucker rats and stored for 4 hours at 4° C. in University of Wisconsin (UW) solution before being transplanted into lean Zucker recipients. OLTs were performed with revascularization without hepatic artery reconstruction. There were 2 treatment groups. In the first group, obese Zucker rats (n=10) received CoPP (5 mg/kg intraperitoneally) 24 hours before the procurement. Group 2 donors (n=11) were treated with Ad-HO-1 (2.4×10^9 pfu intravenously) 24 hours before harvest. OLT recipients were followed for survival and serum glutamic-oxaloacetic trans-aminase (sGOT) levels. Separate groups of rats (n=2/group) were sacrificed at 1, 7, 14, and 100 days after OLT, and liver samples were collected for H&E/immunohistology staining and Western blot analysis.

HO-1 [7] = assay: Western analysis of HO-1 expression in the OLT model; type: in vivo, rat; conditions: day 1, 7, 14 and 100 after transplant; densitometer; untreated 0.09–0.85 AU
Procedure: as §1

liver isografts [8] = assay: OLT liver histology, modified Suzuki's criteria; type: in vivo, rat; conditions: day 1 after transplant; graded 0 to 4; control 3.33±0.58
Text: Histology and immunohistochemistry: Liver specimens were fixed in a 10% buffered formalin solution and embedded in paraffin. Sections were made at 4 μm and stained with H&E. The previously published Suzuki's criteria (Suzuki et al., Transplantation 55:1265–1272 (1993)), […] were modified to evaluate the histologic severity of I/R injury in the OLT model. In this classification sinusoidal congestion, hepatocyte necrosis, and ballooning degeneration are graded from 0 to 4. No necrosis, congestion or centrilobular ballooning is given a score of 0, whereas severe congestion and ballooning degeneration as well as greater than 60% lobular necrosis is given a value of 4.

HO-1 [9] = assay: Rat sandwich ELISA of HO-1 protein in liver; type: in vivo; conditions: 5 mg/kg intraperitoneally
Procedure: To test that stress-induced upregulation of HO-1 reduces I/R insult in steatotic rat livers, we have chosen 2 distinct HO-1-inducing approaches. First, donor rats were pretreated with CoPP (5 mg/kg intraperitoneally), a regimen that increases HO-1 protein levels in rat livers by 250% in a rat sandwich ELISA. Second, because infusion of CoPP in high doses may modulate other heme enzymes such as nitric oxide synthase (NOS) and guanylate cyclase, we have also used Ad-based gene delivery to provide “proof of principle” and to selectively upregulate HO-1 expression in prospective liver donors. Western blot analysis confirmed increased HO-1 protein expression in the ex vivo I/R model using Ad-HO-1-transduced rat steatotic livers.

[10] = recipients treated i.p., Zn 10 mg/kg/day day -1 and days 1-9, Co 20 mg/kg/day days 0-5

SMILES | HO-1 expression (HO-1 [1]) [AU] | target cell lysis (EL4 cells) [%] | chromium release from target cells (EL4 cells) | heart allograft survival (mean survival time) ([2]; heart donors pre-treated one day before transplantation (50 mg/kg)) [days] | heart allograft survival (mean survival time) [2, 10] [days] | bile production [3] | portal blood flow [3] | I/R-induced hepatocyte injury measured by sGOT release [3] | Banff's score [4] | intragraft T cells (liver isografts [5]; day 1, labeled cells counted in 10 high-power fields, control 9±3) | intragraft monocytes/macrophages (liver isografts [5]; day 1, labeled cells counted in 10 high-power fields, control 136±31) | hepatocyte architecture and MNC infiltrate of long-term liver grafts (liver isografts [5]; grafts harvested at day 100) | sGOT levels ([6]; day 1 post transplant, control 2695) [IU/L] | sGOT levels ([6]; day 7 post transplant, control 1570) [IU/L] | sGOT levels ([6]; day 14 post transplant, control 460) [IU/L] | recipients still alive at well over 100 days after transplant ([6]; lean Zucker rats engrafted with livers from treated obese Zucker donors) | sGOT concentrations ([3]; at 60 minutes of reperfusion, untreated controls 102±8.23) [IU/L] | HO-1 expression (HO-1 [7]) | Suzuki score (liver isografts [8]) | increase of HO-1 protein levels in rat livers (HO-1 [9]) [%]
C=CC1=C(C)c2cc3[n-]c(cc4nc(cc5[n-]c(cc1n2)c(C)c5C=C)C(C)=C4CCC(=O)O)c(CCC(=O)O)c3C.[Zn+2] [ZnPP, Zinc-protoporphyrin] | 0.12 | 0 | lower than the spontaneous release | 10.3±1.5 | 12.0±2.4 | diminished | diminished | augmented hepatocyte injury comparable with otherwise untreated fatty controls | 2.86±0.12 | – | – | – | – | – | – | – | – | – | – | –
C=CC1=C(C)c2cc3[n-]c(cc4nc(cc5[n-]c(cc1n2)c(C)c5CCC(=O)[O-])C(CCC(=O)[O-])=C4C)c(C)c3C=C.[Co+2].[H+].[H+] [CoPP, cobalt-protoporphyrin] | 2.46 | 0 | lower than the spontaneous release | – | 10.5±0.6 | significantly increased; also recorded: significantly higher | significantly improved | markedly reduced | 1.21±0.39 | 2±1 | 71±12 | good preservation of hepatocyte architecture and only mild MNC infiltrate | 1838 | 477 | 198 | 8 out of 10 | 53.3±8.23 | 1.21–2.14 AU | 1.33±0.70 | 250
